Results as given in US11123432B2, “Antimicrobial insect repellent composition” (YEDITEPE UNIVERSITESi, priority 2016, dated 2021).
Where two headings read alike, the source gives them in different places.

Tests used:
Adenovirus Type 5 (Av-5) = format: cell-based, Human adenovirus type 5 Adenoid 75 strain; details: for reduction in virus titer: AV-5 (Table 4), ratio 1/1, 20° C., clean and contaminated media; for Ratio of reduction in virus titer: EBAAP; for EBAAP virüs titer: untreated virus titer 6.0
Poliovirus Type 1 (PV-1) = format: cell-based, Poliovirus type 1 Chat strain; details: for reduction in virus titer: PV-1 (Table 5), ratio 1/1, 20° C., clean and contaminated media; for Ratio of reduction in virus titer: EBAAP; for EBAAP virus titer: untreated virus titer 5.0
[1] = result of many toxicity experiments; cited from earlier work
enteric bacteria = details: Bailey et al. (1980); cited from earlier work
Penicillium expansium = details: Qin et al. (2007); cited from earlier work
[2] = AV-5, 5 minutes, contaminated medium
[3] = AV-5, 60 minutes, contaminated medium
[4] = PV-1, 5 minutes, contaminated medium
[5] = PV-1, 60 minutes, contaminated medium

CCCCN(CCC(=O)OCC)C(C)=O [EBAAP, Ethyl Butyl acetylaminopropionate]
reduction in virus titer (Adenovirus Type 5 (Av-5); 5 minutes): 2 log
reduction in virus titer (Adenovirus Type 5 (Av-5); 60 minutes): 4 log
Ratio of reduction in virus titer (Adenovirus Type 5 (Av-5); AV-5, 5 minutes, clean medium): 2.0 Logarithmic TCID50
EBAAP virüs titer (Adenovirus Type 5 (Av-5); AV-5, 5 minutes, clean medium): 4.0 Logarithmic TCID50
Ratio of reduction in virus titer (Adenovirus Type 5 (Av-5); [2]): 2.0 Logarithmic TCID50
EBAAP virüs titer (Adenovirus Type 5 (Av-5); [2]): 4.0 Logarithmic TCID50
Ratio of reduction in virus titer (Adenovirus Type 5 (Av-5); AV-5, 60 minutes, clean medium): 4.0 Logarithmic TCID50
EBAAP virüs titer (Adenovirus Type 5 (Av-5); AV-5, 60 minutes, clean medium): 2.0 Logarithmic TCID50
Ratio of reduction in virus titer (Adenovirus Type 5 (Av-5); [3]): 4.0 Logarithmic TCID50
EBAAP virüs titer (Adenovirus Type 5 (Av-5); [3]): 2.0 Logarithmic TCID50
active against virus (Adenovirus Type 5 (Av-5); AV-5, used undiluted, 20° C., 60 minute application): 99.9%
reduction in virus titer (Poliovirus Type 1 (PV-1); 5 minutes): 2 log
reduction in virus titer (Poliovirus Type 1 (PV-1); 60 minutes): 4 log
Ratio of reduction in virus titer (Poliovirus Type 1 (PV-1); PV-1, 5 minutes, clean medium): 2.0 Logarithmic TCID50
EBAAP virus titer (Poliovirus Type 1 (PV-1); PV-1, 5 minutes, clean medium): 3.0 Logarithmic TCID50
Ratio of reduction in virus titer (Poliovirus Type 1 (PV-1); [4]): 2.0 Logarithmic TCID50
EBAAP virus titer (Poliovirus Type 1 (PV-1); [4]): 3.0 Logarithmic TCID50
Ratio of reduction in virus titer (Poliovirus Type 1 (PV-1); PV-1, 60 minutes, clean medium): 4.0 Logarithmic TCID50
EBAAP virus titer (Poliovirus Type 1 (PV-1); PV-1, 60 minutes, clean medium): 1.0 Logarithmic TCID50
Ratio of reduction in virus titer (Poliovirus Type 1 (PV-1); [5]): 4.0 Logarithmic TCID50
EBAAP virus titer (Poliovirus Type 1 (PV-1); [5]): 1.0 Logarithmic TCID50
active against virus (Poliovirus Type 1 (PV-1); PV-1, used undiluted, 20° C., 60 minute application): 99.9%
irritation on the skin [1]: does not cause irritation on the skin

OB(O)O [boric acid]
antibacterial activity (enteric bacteria): has antibacterial activity

[K+].[K+].[O-]B1OB2OB([O-])OB(O1)O2 [potassium tetraborate]
minimum concentration preventing micelle growth (Penicillium expansium): 0.1%
